Key:
[1] = tested on: Enterococcus faecium LWP 50-52; assay: Influence of signal peptide on bacteriocin 50-52 production, flask culture (fraction protein at 215 nm, activity by spot-test against C. jejuni and S. enteritidis); assay type: cell-based
[2] = tested on: Streptococcus cricetus LWP 760; assay: Bacteriocin 760 production with signal peptide under scaled-up conditions (bioreactor); assay type: cell-based; details: V-61 reactor, 10% Brucella Broth, LWP 760, LWP 320, peptide 0.22 mg added after two hours, pH 6.9, 37° C., 12 hours
[3] = LWP 50-52 + LWP 320, LWP 760 peptide 0.1 mg/ml

## WNKYKTNWVLSVCNTGCACAAVKGLT (listed as Streptococcus cricetus) [LWP 760 Signal Peptide, signal peptide isolated from Streptococcus cricetus LWP 760, stimulates bacteriocin 760 production]
[1]; [3]
  Activity: 819,200 AU/ml
  Protein Concentration: 0.25 mg/mL
  Protein increase vs. Control: 1
  Specific Activity: 3,276,800 AU/mg
  mg protein/liter: 82.5 mg protein/liter
[1]; signal peptide of another strain added to LWP 50-52 + LWP 320
  yield of bacteriocin 50-52 versus the control: did not increase
[2]
  Activity: 13,107,200 AU/ml
  Increase in the amount of protein produced vs. in control: 4.25
  Protein Concentration: 3.4 mg/mL
  Protein produced per one liter of medium: 510 mg
  Specific Activity: 3,855,058 AU/mg

Source: patent US7354904B2, “Bacteriocin inducer peptides” (priority 2005, dated 2008)
